PubChem BioAssay AID248 (DTP/NCI, 2004)
Values joined by “and” are separate entries in the source; they are usually repeats but may differ in a detail not shown here. Equal entries are not always repeated. Inconclusive results and toxic doses are left out. No stated cut-off is given here; in the data, active means T/C of 150% or more; inactive means T/C below 125%.

Tested on: L1210 leukemia ip in BDF1 mice, survival T/C
Assay: NCI In Vivo Anticancer Drug Screen. Data for tumor model L1210 Leukemia (intraperitoneal) in B6D2F1 (BDF1) mice
Conditions: endpoint: mean survival time, higher = longer survival
Method in brief: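 Ratio derived from survival: compound-dosed mice over vehicle-dosed mice, all bearing a transplantable tumor.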

[1] = dose: 100.0 mg/kg/injection, schedule: Q01DX001 (ip), vehicle: saline
[2] = dose: 200.0 mg/kg/injection, schedule: Q01DX001 (ip), vehicle: saline
[3] = dose: 400.0 mg/kg/injection, schedule: Q01DX001 (ip), vehicle: saline
[4] = dose: 100.0 mg/kg/injection, schedule: Q04DX003 (ip), vehicle: Klucel (hydroxypropylcellulose) (HPC)
[5] = dose: 200.0 mg/kg/injection, schedule: Q04DX003 (ip), vehicle: Klucel (hydroxypropylcellulose) (HPC)
[6] = dose: 100.0 mg/kg/injection, schedule: Q04DX003 (ip), vehicle: saline with Tween-80
[7] = dose: 200.0 mg/kg/injection, schedule: Q04DX003 (ip), vehicle: saline with Tween-80
[8] = dose: 400.0 mg/kg/injection, schedule: Q04DX003 (ip), vehicle: saline with Tween-80
[9] = dose: 150.0 mg/kg/injection, schedule: Q01DX001 (ip), vehicle: saline
[10] = dose: 100.0 mg/kg/injection, schedule: Q04DX002 (ip), vehicle: Klucel (hydroxypropylcellulose) (HPC)
[11] = dose: 200.0 mg/kg/injection, schedule: Q04DX002 (ip), vehicle: Klucel (hydroxypropylcellulose) (HPC)
[12] = dose: 400.0 mg/kg/injection, schedule: Q04DX002 (ip), vehicle: Klucel (hydroxypropylcellulose) (HPC)
[13] = dose: 100.0 mg/kg/injection, schedule: Q01DX009 (ip), vehicle: saline
[14] = dose: 200.0 mg/kg/injection, schedule: Q01DX009 (ip), vehicle: saline
[15] = dose: 100.0 mg/kg/injection, schedule: Q01DX009 (ip), vehicle: saline with Tween-80
[16] = dose: 200.0 mg/kg/injection, schedule: Q01DX009 (ip), vehicle: saline with Tween-80
[17] = dose: 400.0 mg/kg/injection, schedule: Q01DX009 (ip), vehicle: saline with Tween-80
[18] = dose: 50.0 mg/kg/injection, schedule: Q01DX009 (ip), vehicle: saline
[19] = dose: 100.0 mg/kg/injection, schedule: Q04DX003 (ip), vehicle: saline

Measured: T/C

O=C(COC(=O)c1ccccc1O)c1ccc(-c2ccccc2)cc1
inactive: [1] 94 % of control | [2] 88 % of control | [3] 88 % of control

C(#CP(c1ccccc1)c1ccccc1)P(c1ccccc1)c1ccccc1
inactive: dose: 50.0 mg/kg/injection, schedule: Q04DX003 (ip), vehicle: Klucel (hydroxypropylcellulose) (HPC) 98 % of control | [4] 101 % of control | [5] 102 % of control

CCOC(=O)c1nc(N)n[nH]1
inactive: [6] 106 % of control | [7] 104 % of control | [8] 101 % of control

CC(=O)Nc1cccc(-c2nnc(C3CCCC(NC(C)=O)C3)nn2)c1 (centres undefined)
inactive: [1] 96 % of control | [2] 88 % of control | [3] 88 % of control

Cc1ccc(S(=O)(=O)N(C)c2ccc(C(=O)O)cc2F)cc1
inactive: dose: 75.0 mg/kg/injection, schedule: Q01DX001 (ip), vehicle: saline 105 % of control | dose: 75.0 mg/kg/injection, schedule: Q04DX003 (ip), vehicle: saline 100 % of control | [9] 90 % of control | dose: 150.0 mg/kg/injection, schedule: Q04DX003 (ip), vehicle: saline 97 % of control | dose: 300.0 mg/kg/injection, schedule: Q01DX001 (ip), vehicle: saline 98 % of control | dose: 300.0 mg/kg/injection, schedule: Q04DX003 (ip), vehicle: saline 97 % of control

CP1CCC(O)(c2ccccc2)CC1 (centres undefined)
inactive: [10] 88 % of control | [11] 103 % of control | [12] 95 % of control

[I][Pb]([c]1ccccc1)([c]1ccccc1)[c]1ccccc1
inactive: dose: 12.5 mg/kg/injection, schedule: Q04DX003 (ip), vehicle: Klucel (hydroxypropylcellulose) (HPC) 98 % of control | dose: 25.0 mg/kg/injection, schedule: Q04DX003 (ip), vehicle: Klucel (hydroxypropylcellulose) (HPC) 94 % of control

CCc1cccc2c1C(=O)OC2=O
inactive: [13] 94 % of control | [14] 91 % of control

COC1(OC)C2C=CC1C1C2C2C1C1C=CC2C1(OC)OC (centres undefined)
inactive: [15] 103 % of control | [6] 94 % of control | [16] 95 % of control | [7] 92 % of control | [17] 100 % of control | [8] 89 % of control

COC(=O)c1cccc([N+](=O)[O-])c1Br
inactive: dose: 50.0 mg/kg/injection, schedule: Q01DX001 (ip), vehicle: other 102 % of control | dose: 100.0 mg/kg/injection, schedule: Q01DX001 (ip), vehicle: other 96 % of control | dose: 200.0 mg/kg/injection, schedule: Q01DX001 (ip), vehicle: other 102 % of control | dose: 400.0 mg/kg/injection, schedule: Q01DX001 (ip), vehicle: other 100 % of control

Cc1cc2nc3c(nc2cc1C)-c1ccccc1C3=O
inactive: [15] 117 % of control | [16] 101 % of control | [17] 97 % of control

O=[N+]([O-])c1ccc(Sc2cccs2)c([N+](=O)[O-])c1
inactive: [15] 97 % of control | [6] 105 % of control | [16] 100 % of control | [7] 93 % of control | [17] 102 % of control | [8] 93 % of control

COc1cc(C=O)ccc1OC(=O)Nc1ccc(F)c([N+](=O)[O-])c1
inactive: dose: 25.0 mg/kg/injection, schedule: Q01DX009 (ip), vehicle: other 97 % of control | dose: 50.0 mg/kg/injection, schedule: Q01DX009 (ip), vehicle: other 92 % of control | dose: 100.0 mg/kg/injection, schedule: Q01DX009 (ip), vehicle: other 97 % of control and 98 % of control

COc1ccc(CCN2C(=O)c3cccc4c(Sc5ccccc5[N+](=O)[O-])ccc(c34)C2=O)cc1OC
inactive: dose: 100.0 mg/kg/injection, schedule: Q04DX002 (ip), vehicle: saline with Tween-80 90 % of control | dose: 200.0 mg/kg/injection, schedule: Q04DX002 (ip), vehicle: saline with Tween-80 111 % of control | dose: 400.0 mg/kg/injection, schedule: Q04DX002 (ip), vehicle: saline with Tween-80 93 % of control

O=C(Nc1ccccc1)C1=C(Nc2ccccc2)CSC1
inactive: dose: 25.0 mg/kg/injection, schedule: Q01DX009 (ip), vehicle: saline with Tween-80 109 % of control | dose: 50.0 mg/kg/injection, schedule: Q01DX009 (ip), vehicle: saline with Tween-80 100 % of control | [15] 94 % of control | [16] 98 % of control | [17] 89 % of control

O=c1[nH]nc(S(=O)(=O)c2ccccc2)c(=O)[nH]1
inactive: dose: 100.0 mg/kg/injection, schedule: Q01DX001 (ip), vehicle: carboxymethylcellulose (CMC) 95 % of control | dose: 200.0 mg/kg/injection, schedule: Q01DX001 (ip), vehicle: carboxymethylcellulose (CMC) 95 % of control | dose: 400.0 mg/kg/injection, schedule: Q01DX001 (ip), vehicle: carboxymethylcellulose (CMC) 95 % of control

CC1(C)OC2COC(c3[nH]nc(C(N)=O)c3I)C2O1 (centres undefined)
inactive: dose: 100.0 mg/kg/injection, schedule: Q01DX005 (ip), vehicle: saline 93 % of control | dose: 200.0 mg/kg/injection, schedule: Q01DX005 (ip), vehicle: saline 95 % of control

CCCCOP(=O)(N1CC1C)N1CC1C (centres undefined)
inactive: dose: 6.25 mg/kg/injection, schedule: Q04DX003 (ip), vehicle: acetone 109 % of control | dose: 12.5 mg/kg/injection, schedule: Q04DX003 (ip), vehicle: acetone 115 % of control | dose: 25.0 mg/kg/injection, schedule: Q01DX001 (ip), vehicle: saline 123 % of control | dose: 75.0 mg/kg/injection, schedule: Q04DX003 (ip), vehicle: acetone 91 % of control
active: dose: 25.0 mg/kg/injection, schedule: Q04DX003 (ip), vehicle: acetone 153 % of control and 168 % of control | dose: 37.5 mg/kg/injection, schedule: Q04DX003 (ip), vehicle: acetone 163 % of control | dose: 50.0 mg/kg/injection, schedule: Q01DX001 (ip), vehicle: saline 164 % of control | dose: 66.0 mg/kg/injection, schedule: Q01DX001 (ip), vehicle: acetone 158 % of control | dose: 100.0 mg/kg/injection, schedule: Q01DX001 (ip), vehicle: acetone 169 % of control | [1] 159 % of control and 192 % of control | dose: 150.0 mg/kg/injection, schedule: Q01DX001 (ip), vehicle: acetone 189 % of control | [9] 168 % of control

CCC(C)C(CCCN1CCOCC1)(CNC(=O)CN(CC)CC)c1cccc2ccccc12 (centres undefined)
inactive: dose: 25.0 mg/kg/injection, schedule: Q01DX009 (ip), vehicle: saline 94 % of control | [18] 97 % of control | [13] 91 % of control | [19] 102 % of control

CC1(C)COCOC1
inactive: dose: 50.0 mg/kg/injection, schedule: Q01DX009 (ip), vehicle: acetone 95 % of control | dose: 100.0 mg/kg/injection, schedule: Q01DX009 (ip), vehicle: acetone 98 % of control | dose: 200.0 mg/kg/injection, schedule: Q01DX009 (ip), vehicle: acetone 88 % of control

CCCCCCCCCCCCCCCCCC1=NC(C)CC(C)(C)O1 (centres undefined)
inactive: [18] 93 % of control | [1] 89 % of control | [13] 94 % of control | [19] 86 % of control | [2] 95 % of control | [14] 96 % of control | dose: 200.0 mg/kg/injection, schedule: Q04DX003 (ip), vehicle: saline 94 % of control | [3] 91 % of control

Cc1cccc(NC(=O)Nc2ccc(F)cc2)n1
inactive: dose: 100.0 mg/kg/injection, schedule: Q01DX001 (ip), vehicle: Klucel (hydroxypropylcellulose) (HPC) 94 % of control | dose: 100.0 mg/kg/injection, schedule: Q01DX009 (ip), vehicle: Klucel (hydroxypropylcellulose) (HPC) 98 % of control | [10] 98 % of control and 103 % of control | [4] 97 % of control | dose: 200.0 mg/kg/injection, schedule: Q01DX001 (ip), vehicle: Klucel (hydroxypropylcellulose) (HPC) 96 % of control | dose: 200.0 mg/kg/injection, schedule: Q01DX009 (ip), vehicle: Klucel (hydroxypropylcellulose) (HPC) 95 % of control | [11] 100 % of control and 102 % of control | [5] 100 % of control | dose: 400.0 mg/kg/injection, schedule: Q01DX001 (ip), vehicle: Klucel (hydroxypropylcellulose) (HPC) 86 % of control | dose: 400.0 mg/kg/injection, schedule: Q01DX009 (ip), vehicle: Klucel (hydroxypropylcellulose) (HPC) 95 % of control | [12] 105 % of control and 107 % of control | dose: 400.0 mg/kg/injection, schedule: Q04DX003 (ip), vehicle: Klucel (hydroxypropylcellulose) (HPC) 107 % of control
